We go through 35 compounds from PubChem BioAssay (NCI).

Among the test systems are DMS 273 small cell lung; M19-MEL melanoma; XF 498 CNS; KM20L2 colon; LXFL 529 NSCLC; DMS 114 small cell lung; HOP-18 NSCLC; RXF-631 renal; MDA-N; SN12K1 renal; P388/ADR leukemia.
What all share (assay): NCI tumour cell line growth inhibition, 48 h

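The compound was tested at five concentrations on cells cultured in 96-well plates, with a 48-hour exposure period. GI50: concentration for 50% inhibition of growth. TGI marks complete inhibition of growth.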 Active and inactive are the calls of the source. No stated cut-off is given here; in the data, active means GI50 below about 0.43 µM; inactive means the rest.

In the case of `CCCCCCCCCCCC(=O)OC(COC(N)=O)COc1ccc(Cl)cc1` (centres undefined), the TGI with DMS 273 small cell lung was 40.9 µM; in the assay with M19-MEL melanoma it was 32.9 µM; in the assay with XF 498 CNS, 45.8 µM; in the assay on KM20L2 colon, above 100 µM; in the assay on LXFL 529 NSCLC, 45.2 µM; in the assay with DMS 114 small cell lung, 33.1 µM. In addition, the TGI in the assay on HOP-18 NSCLC is 95.7 µM; with RXF-631 renal it was 67.7 µM.

Consider `COC(=O)N/N=C(/c1nc2ccc([N+](=O)[O-])cc2[nH]c1=O)C(O)c1ccc(OC)c(OC)c1` (centres undefined), for which the TGI in the assay with DMS 273 small cell lung is 63.7 µM; with M19-MEL melanoma, above 100 µM; in the assay on XF 498 CNS, above 100 µM; in the assay with KM20L2 colon it was above 100 µM; with LXFL 529 NSCLC, above 100 µM; with MDA-N, above 100 µM. Moreover, the figures for the TGI in the assay with DMS 114 small cell lung, in the assay with HOP-18 NSCLC and in the assay on RXF-631 renal were 51.3 µM, above 100 µM and above 100 µM, respectively.

Turning to `NCC1(N2CCOCC2)C2CCCC21CNc1ccccc1` (centres undefined), the TGI in the assay on DMS 273 small cell lung, with M19-MEL melanoma, with XF 498 CNS, with LXFL 529 NSCLC, with DMS 114 small cell lung and in the assay with HOP-18 NSCLC was above 100 µM throughout. The compound also registered a TGI in the assay on RXF-631 renal above 100 µM.

Consider `NC(=O)c1ncn(Cc2ccccc2)c1CNC(N)=S`, for which the TGI with DMS 273 small cell lung, in the assay on M19-MEL melanoma, in the assay on XF 498 CNS, in the assay with LXFL 529 NSCLC, in the assay with DMS 114 small cell lung and with HOP-18 NSCLC was above 100 µM each time. For the same compound, the TGI in the assay with RXF-631 renal was above 100 µM.

For the compound `O=C(/C=C/c1ccc(O)cc1)c1cc(Cl)ccc1O`, the TGI is above 100 µM in the assay with M19-MEL melanoma; 85 µM in the assay with XF 498 CNS; above 100 µM in the assay on KM20L2 colon; above 100 µM with LXFL 529 NSCLC; 67.4 µM in the assay with DMS 114 small cell lung; above 100 µM with HOP-18 NSCLC.

With `O=C1c2ccccc2C(=O)c2c1ccc1c2N=C(c2ccc(Br)cc2)CC(c2cccc3ccccc23)N1` (centres undefined), the TGI in the assay with DMS 273 small cell lung, in the assay on XF 498 CNS, in the assay with KM20L2 colon, in the assay with LXFL 529 NSCLC, in the assay on DMS 114 small cell lung and in the assay with HOP-18 NSCLC was above 100 µM each time. For the same compound, in the assay on RXF-631 renal, the TGI was above 100 µM.

Turning to `Cn1cnc([N+](=O)[O-])c1Sc1nc2ccc([N+](=O)[O-])cc2[nH]1`, the TGI with DMS 273 small cell lung was 4.68 µM; with M19-MEL melanoma, 44.5 µM; in the assay on XF 498 CNS, 28.9 µM; with KM20L2 colon it was above 100 µM; in the assay on LXFL 529 NSCLC it was 26.9 µM; with HOP-18 NSCLC, above 100 µM.

For `CC1CC(c2ccc(Cl)c(Cl)c2)=Nc2ccccc2S1` (centres undefined), the TGI in the assay on DMS 273 small cell lung, with M19-MEL melanoma, in the assay on XF 498 CNS, in the assay with KM20L2 colon, in the assay on LXFL 529 NSCLC and with DMS 114 small cell lung was above 100 µM throughout. Further, the TGI in the assay on HOP-18 NSCLC was above 100 µM.

In the case of `CC1(C)CC(N2CCN(C3CC(C)(C)NC(C)(C)C3)CC2)CC(C)(C)N1`, the TGI with DMS 273 small cell lung, in the assay on XF 498 CNS, with KM20L2 colon, in the assay with LXFL 529 NSCLC, with DMS 114 small cell lung and in the assay with HOP-18 NSCLC was above 100 µM in each case. Also, the TGI in the assay with RXF-631 renal was above 100 µM.

In the case of `N#Cc1cn(-c2c3ccccc3nc3ccccc23)c(=O)[nH]c1=O`, the TGI was found to be 46.1 µM in the assay on M19-MEL melanoma, 25.2 µM with XF 498 CNS, 32.2 µM in the assay with KM20L2 colon and 35.4 µM with DMS 114 small cell lung.

For `Cc1ccc2nc3c(C)cc(=O)cc-3sc2c1`, the TGI in the assay on DMS 273 small cell lung was above 100 µM; in the assay with M19-MEL melanoma, 31 µM; in the assay on KM20L2 colon, above 100 µM; in the assay with LXFL 529 NSCLC, above 100 µM; in the assay on DMS 114 small cell lung, 45.5 µM; in the assay with HOP-18 NSCLC it was above 100 µM. The TGI with RXF-631 renal was above 100 µM.

Turning to `CCc1ccc([O-])c(C=NCCCN(C)CCCN=Cc2cc(C)ccc2[O-])c1.[Co+3].[N-]=[N+]=[N-]`, the GI50 in the assay with SN12K1 renal is 21.7 µg/mL; in the assay with DMS 273 small cell lung it was 34.7 µg/mL; with M19-MEL melanoma, above 150 µg/mL; with P388/ADR leukemia, 82.9 µg/mL; with MDA-N, 50 µg/mL; in the assay on DMS 114 small cell lung it was 136 µg/mL. The TGI is 54.8 µg/mL with SN12K1 renal; above 150 µg/mL in the assay on DMS 273 small cell lung; above 150 µg/mL with M19-MEL melanoma; above 150 µg/mL with P388/ADR leukemia; 50 µg/mL with MDA-N; above 150 µg/mL in the assay with DMS 114 small cell lung. In addition, the outcome in the assay on XF 498 CNS, with KM20L2 colon and with HOP-18 NSCLC was inactive.

As to `NC(=O)c1cc([N+](=O)[O-])cc([N+](=O)[O-])c1`, the TGI in the assay on DMS 273 small cell lung was above 100 µM; with M19-MEL melanoma it was 46.8 µM; in the assay on KM20L2 colon, above 100 µM; in the assay with LXFL 529 NSCLC it was above 100 µM; in the assay with DMS 114 small cell lung, above 100 µM; with RXF-631 renal it was above 100 µM.

`c1cc2c(c(NC3=NCCN3)c1)CCCC2` gave a TGI in the assay on MDA-N above 100 µM.

Compound `C=C1C(=O)C2(C)OC2(C)C1C(=O)O` (centres undefined) showed a TGI in the assay with MDA-N above 100 µM.

For `CCCCC(C(=O)CCC(=O)Nc1ccc(Cl)cc1)C(=O)C(C)C` (centres undefined), the TGI with DMS 273 small cell lung, in the assay with M19-MEL melanoma, with XF 498 CNS, with KM20L2 colon, with LXFL 529 NSCLC and with DMS 114 small cell lung was above 100 µM each time. The compound further displayed a TGI with RXF-631 renal above 100 µM.

In the case of `ClCCCCOC1CCCCO1` (centres undefined), the TGI in the assay with DMS 273 small cell lung, with M19-MEL melanoma, in the assay on XF 498 CNS, in the assay on KM20L2 colon, in the assay with LXFL 529 NSCLC and in the assay on DMS 114 small cell lung was above 100 µM throughout. For the same compound, the TGI in the assay on HOP-18 NSCLC was above 100 µM.

With `O=C1C(Br)=CC2(C=C1Br)CCNc1c(O)c3c4c(c12)=NCCC=4C=N3`, the TGI in the assay with SN12K1 renal came out at 0.426 µM; in the assay with DMS 273 small cell lung it was 0.427 µM; in the assay with M19-MEL melanoma, 0.0656 µM; with XF 498 CNS, 0.399 µM; in the assay on KM20L2 colon, 0.413 µM; in the assay with P388/ADR leukemia, 0.0155 µM. Further, the TGI was found to be 0.245 µM in the assay on MDA-N, 0.101 µM with DMS 114 small cell lung and 3.4 µM in the assay with HOP-18 NSCLC.

Regarding `COc1cc(/C=C/c2ccccn2)cc(OC)c1OC`, the TGI with MDA-N was above 10 µM.

`COc1ccc(/C=C2\CCC(Cc3ccccc3)(CN(C)C)C2=O)cc1` (centres undefined): the TGI with DMS 273 small cell lung is 32.5 µM; with M19-MEL melanoma, 70.7 µM; in the assay on KM20L2 colon, 59.6 µM; in the assay on LXFL 529 NSCLC, above 100 µM; in the assay on MDA-N, above 100 µM; with DMS 114 small cell lung, 48.6 µM. The same compound came in with a TGI in the assay on HOP-18 NSCLC above 100 µM.

The compound `CC(C)COC(c1ccc2c(c1)OCO2)C(C)Br` (centres undefined) had a TGI in the assay on MDA-N of 53.8 µM.

For the compound `COc1c(C)c(O)c2c(c1C)OC(c1ccccc1)CC2=O` (centres undefined), the TGI with DMS 273 small cell lung, in the assay on M19-MEL melanoma, in the assay on KM20L2 colon, with LXFL 529 NSCLC, with DMS 114 small cell lung and with HOP-18 NSCLC was above 100 µM throughout.

As to `Nc1nc2ncn(CC(O)COC(=O)c3ccccc3)c2c(=O)[nH]1` (centres undefined), the TGI in the assay with DMS 273 small cell lung, in the assay on M19-MEL melanoma, in the assay with XF 498 CNS, in the assay on KM20L2 colon, with LXFL 529 NSCLC and in the assay with DMS 114 small cell lung was above 100 µM throughout. For the same compound, the TGI in the assay with HOP-18 NSCLC and in the assay on RXF-631 renal was above 100 µM each time.

On to `COC(=O)/C(=N/NC(C)(C)C)C(C(=O)OC)C(=O)C(=O)Nc1nc2ccc([N+](=O)[O-])cc2s1` (centres undefined), for which the TGI in the assay with M19-MEL melanoma, in the assay on XF 498 CNS, in the assay on KM20L2 colon, with LXFL 529 NSCLC and in the assay with DMS 114 small cell lung was above 100 µM in each case.

In the assay with MDA-N, `O=C(/C=C/c1ccccc1)OCC1=C[C@@H](O)[C@@H]2C=CO[C@@H](OC3OC(CO)C(O)C(O)C3O)[C@H]12` (some centres undefined) displayed a TGI above 100 µM.

For the compound `COC(=O)C1(C)CCCC2(C)c3cc(OC)ccc3C(=O)C(Br)C12` (centres undefined), in the assay on MDA-N, the TGI was above 10 µM.

Take `O=c1[nH]c(SCc2ccccc2[N+](=O)[O-])nc2nc[nH]c12`: in the assay with MDA-N, the TGI was above 100 µM.

Take `Nc1ccc(C(=O)Nc2ccccc2N)cc1`: the TGI in the assay with DMS 273 small cell lung, in the assay on M19-MEL melanoma, in the assay on XF 498 CNS, in the assay with LXFL 529 NSCLC, in the assay with MDA-N and in the assay with DMS 114 small cell lung was above 100 µM throughout. The TGI in the assay with HOP-18 NSCLC and in the assay with RXF-631 renal was above 100 µM each time.

On to `O=C(O)COc1ccc(C(=O)/C(SS/C(C(=O)c2ccc(OCC(=O)O)c(Cl)c2Cl)=C2\C=C(c3ccccc3Cl)SS2)=C2/C=C(c3ccccc3Cl)SS2)c(Cl)c1Cl`, for which the TGI is 56.9 µM in the assay on DMS 273 small cell lung; above 66.6 µM with M19-MEL melanoma; 50.4 µM in the assay with XF 498 CNS; above 100 µM in the assay with KM20L2 colon; 19.9 µM with LXFL 529 NSCLC; 26.1 µM with DMS 114 small cell lung. In addition, the TGI with HOP-18 NSCLC is above 72.4 µM; in the assay with RXF-631 renal, above 84.9 µM.

With `Cc1c(O)c(Br)c(C)c(O)c1Br` (tested in a mixture with another compound), in the assay on MDA-N, the TGI was 3.26 µM.

In the assay on MDA-N, `CC12CC(=O)C3C(CCC4=CC(=O)CCC43C)C1CC=C2CC(=O)O` (centres undefined) had a TGI above 100 µM.

In the assay with MDA-N, `CC1(C)OC(=O)C(=Cc2ccc([N+](=O)[O-])s2)C(=O)O1` showed a TGI of 32.5 µM.

On to `COC(=O)C1(O)c2ccccc2N=C2C1CCN2C` (centres undefined), for which the TGI in the assay with XF 498 CNS, with KM20L2 colon, in the assay on LXFL 529 NSCLC, in the assay on DMS 114 small cell lung and in the assay with HOP-18 NSCLC was above 100 µM in each case.

With `CC[C@@]1(O)C(=O)NCc2c1cc1n(c2=O)Cc2cc3c(NC(C)=O)cccc3nc2-1`, in the assay on MDA-N, the GI50 was above 100 µM and the TGI is above 100 µM.

For the compound `CCCCCCSc1nc(COC(=O)NC)c(COC(=O)NC)n1C`, in the assay on MDA-N, the TGI was above 100 µM.
